Data taken from US12226405B2, “Compounds and compositions for inhibiting the activity of HIF2-alpha and their methods of use” (Novartis AG, priority 2020, dated 2025).

Columns and labels:
[1] = 25° C.; for hygroscopicity assignment (DVS): 0 to 95% RH
Description: Dynamic vapor sorption was performed using a SMS Advantage system. Approximately 10 mg of sample was subjected to varying humidities between 0% RH and 95% RH at 25° C. Evaluation was performed using the system software.

[2] = test system: HIF2α-dependent transcription in 786-O-HRE-Luc cells; assay: In vitro cellular hypoxia response element (HRE) reporter gene assay (RGA) for HIF2α; type: cell-based, human; conditions: Homo sapiens, 24 hours incubation
Summary of the method: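 Renal carcinoma cells carrying a 4×HRE-driven PEST-destabilised firefly luciferase were treated a day after seeding with eleven 2-fold compound dilutions (0.1% DMSO) for 24 h at 37° C. BrightGlo luminescence, background-subtracted and expressed as % of DMSO control, was fitted four-parametrically for IC50.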

[3] = test system: HIF2α-regulated expression of the endogenous target gene hEGLN3 in 786-O cells; assay: Cellular iScript assay for HIF2α (quantitative RT-PCR of hEGLN3); type: cell-based, human; conditions: Homo sapiens, 786-0, 48 hours incubation
Summary of the method: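 786-O cells were exposed to eleven 2-fold compound dilutions for 48 h at 37° C. Lysates underwent one-step TaqMan qRT-PCR for hEGLN3 with beta-actin as reference; 2^(−ΔΔCt) versus DMSO, as % of control, was fit with a four-parameter model to give IC50.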

[4] = target: T1, HIF2α PAS-B domain (236-350, biotinylated on the N-terminus) (Homo sapiens (Human), UniProt Q99814); assay: biochemical
Description: (§1) The assay buffer contained 50 mM Tris-HCl pH7 (Sigma), 20 mM NaCl (Fluka), 0.02% BSA (Sigma), 0.005% Triton X-100 (Pierce) and 1 mM DTT (Fluka). After a 30 min incubation period, 5 μL Streptavidin PVT SPA Beads (Perkin Elmer) at 1.2 mg/mL, diluted in the buffer, were added.

[5] = target: T1, HIF2α PAS-B domain (236-350, biotinylated on the N-terminus); assay: In vitro SPA with the PAS-B domain of HIF2α (competition binding with radio-ligand); conditions: read-out: affinity of the non-labeled ligand, IC50
Description: as §1

T1 sequence (Q99814 236-350): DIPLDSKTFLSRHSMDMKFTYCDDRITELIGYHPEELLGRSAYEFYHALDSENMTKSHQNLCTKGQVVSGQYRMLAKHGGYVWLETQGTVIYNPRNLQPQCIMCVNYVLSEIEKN

Compound: FC(F)OC1=CC(C(F)(F)F)=CN2C[C@@]3(CCC(F)(F)c4c3ccnc4Cl)N=C12.O=C(O)/C=C/C(=O)O
- hygroscopicity assignment (DVS) [1]: non-hygroscopic
- mass difference between 0 and 95% RH (DVS) [1]: less than 0.1 weight %

Compound: FC(F)OC1=CC(C(F)(F)F)=CN2C[C@@]3(CCC(F)(F)c4c3ccnc4Cl)N=C12
- hygroscopicity assignment (DVS) [1]: non-hygroscopic
- mass difference between 0 and 95% RH (DVS) [1]: less than 0.05 weight %

Compound: FC1=CC(C(F)(F)F)=CN2CC3(CCCc4c3ccc(F)c4F)N=C12 (racemic) [Example 78, rac-5′,6′,8-trifluoro-6-(trifluoromethyl)-3′,4′-dihydro-2′H,3H-spiro[imidazo[1,2-a]pyridine-2,1′-naphthalene]]
- IC50 [2]: 4230 nM
- IC50 [3]: 161 nM
- IC50 [4]: 8 nM

Compound: FC(F)OC1=CC(C(F)(F)F)=CN2CC3(CCCc4c(Br)cccc43)N=C12 (racemic) [Example 81, rac-5′-bromo-8-(difluoromethoxy)-6-(trifluoromethyl)-3′,4′-dihydro-2′H,3H-spiro[imidazo[1,2-a]pyridine-2,1′-naphthalene]]
- IC50 [2]: 143 nM
- IC50 [3]: 57 nM
- IC50 [4]: ≤ 10 nM

Compound: Fc1cccc2c1OC[C@H](F)[C@@]21CN2C=C(C(F)(F)F)C=C(OC(F)F)C2=N1 (racemic) [Example 101, rac-8′-(difluoromethoxy)-3,8-difluoro-6′-(trifluoromethyl)-3′H-spiro[chromane-4,2′-imidazo[1,2-a]pyridine]]
- IC50 [3]: 149 nM
- IC50 [4]: 15 nM

Compound: Fc1c(C(F)(F)F)ccc2c1COCC21CN2C=C(C(F)(F)F)C=C(OC(F)F)C2=N1 (racemic) [Example 108, rac-8-(difluoromethoxy)-8′-fluoro-6,7′-bis(trifluoromethyl)-3H-spiro[imidazo[1,2-a]pyridine-2,4′-isochroman]]
- IC50 [2]: 692 nM
- IC50 [3]: 156 nM
- IC50 [4]: 29 nM

Compound: FC(F)OC1=CC(C(F)(F)F)=CN2CC3(CCCOc4c(Cl)cccc43)N=C12 (racemic) [Example 118, rac-9-chloro-8′-(difluoromethoxy)-6′-(trifluoromethyl)-3,4-dihydro-2H,3′H-spiro[benzo[b]oxepine-5,2′-imidazo[1,2-a]pyridine]]
- IC50 [2]: 1030 nM
- IC50 [3]: 161 nM
- IC50 [4]: 16 nM

Compound: Fc1c(Br)ccc2c1CC[C@@]21CN2C=C(C(F)(F)F)C=C(OC(F)F)C2=N1 [Example 1, (S)-5′-bromo-8-(difluoromethoxy)-4′-fluoro-6-(trifluoromethyl)-2′,3′-dihydro-3H-spiro[imidazo[1,2-a]pyridine-2,1′-indene]]
- IC50 [2]: 232 nM
- IC50 [3]: 65 nM
- IC50 [4]: ≤ 3 nM

Compound: O[C@H]1c2c(ccc(Br)c2F)[C@]2(CN3C=C(C(F)(F)F)C=C(OC(F)F)C3=N2)CC1(F)F [Example 18, (1′S,4'S)-6′-bromo-8-(difluoromethoxy)-3′,3′,5′-trifluoro-6-(trifluoromethyl)-3′,4′-dihydro-2′H,3H-spiro[imidazo[1,2-a]pyridine-2,1′-naphthalen]-4′-ol]
- IC50 [2]: 92 nM
- IC50 [3]: 37 nM
- IC50 [4]: 6 nM

Compound: O[C@@H]1c2c(ccc(Br)c2F)[C@]2(CN3C=C(C(F)(F)F)C=C(OC(F)F)C3=N2)CC1(F)F [Example 19, (1′S,4′R)-6′-bromo-8-(difluoromethoxy)-3′,3′,5′-trifluoro-6-(trifluoromethyl)-3′,4′-dihydro-2′H,3H-spiro[imidazo[1,2-a]pyridine-2,1′-naphthalen]-4′-ol]
- IC50 [2]: 446 nM
- IC50 [3]: 144 nM
- IC50 [4]: 36 nM

Compound: O=C1c2c(F)cccc2[C@@]2(C[C@H]1F)CN1C=C(C(F)(F)F)C=C(OC(F)F)C1=N2 [Example 20, (1′S,3′R)-8-(difluoromethoxy)-3′,5′-difluoro-6-(trifluoromethyl)-2′H,3H-spiro[imidazo[1,2-a]pyridine-2,1′-naphthalen]-4′(3′H)-one]
- IC50 [2]: 892 nM
- IC50 [3]: 155 nM
- IC50 [4]: 15 nM

Compound: N#CC1=CN2C[C@@]3(CSCc4c(F)cccc43)N=C2C(OC(F)F)=C1 [Example 68, (S)-8-(difluoromethoxy)-8′-fluoro-3H-spiro[imidazo[1,2-a]pyridine-2,4′-isothiochroman]-6-carbonitrile]
- IC50 [2]: 670 nM
- IC50 [3]: 111 nM
- IC50 [4]: 11 nM

Compound: O=[N+]([O-])c1c(Nc2cc(F)cc(Cl)c2)ccc2nonc12 [N-(3-chloro-5-fluorophenyl-4-t)-4-nitrobenzo[c][1,2,5]oxadiazol-7-t-5-amine, reference compound]
- IC50 [5]: 82 ± 18 nM
